In general, EC50 refers to the concentration giving half of the maximal effect. Low values mean higher potency in that assay, high ones lower potency in that assay.

Data set [1] concerns the target T1, hNurr1_RXRαFL (NURR-1/RXRα heterodimer) (Homo sapiens, UniProt P19793).
T1 construct: hNurr1_RXRαFL
Briefly: Transactivation assay, NURR-1-Gal4/RXRα luciferase reporter in Cos-7 cells. It is filed as cell-based. The note with it: for Emax: COS-7, level of induction relative to XCT0135908 at 2×10^-5 M = 100%, read-out: Eff hNurr1_RXRαFL (efficacy relative to the reference XCT0135908); for EC50: Cos-7 cells, Gal4 luciferase reporter. The procedure: (§1) To start with, using an in vitro assay, the capacity of the compounds according to the invention to behave as an activator of the heterodimers formed by the NURR-1 nuclear receptor and the RXR nuclear receptors was measured.
(§2) A transactivation assay was used as a primary screening test. Cos-7 cells were co-transfected with a plasmid expressing a chimera of the human receptor NURR-1-Gal4, a plasmid expressing the RXR human receptor (RXRα or RXRγ receptor) and a reporter plasmid 5Gal4pGL3-TK-Luc. The transfections were carried out using a chemical agent (Jet PEI).
(§3) The transfected cells were distributed in 384-well plates and left to stand for 24 hours.
(§4) After 24 hours, the culture medium was changed. The test products were added (final concentration between 10^−4 and 3.10^−10 M) in the culture medium. After incubation overnight, the expression of luciferase was measured after addition of “SteadyGlo” in accordance with the manufacturer's (Promega) instructions.
(§5) 4-[[6-Methyl-2-phenyl-5-(2-propenyl)-4-pyrimidinyl]amino]benzoic acid (called XCT0135908) at 2×10^−5 M (RXR agonist) was used as reference.
(§6) The levels of induction were calculated in relation to the basal activity of each heterodimer. The results were expressed as a percentage of the level of induction relative to the level of induction obtained with the reference (the level of induction of the reference is arbitrarily equal to 100%).
(Reporter assays use an easily measured gene product as a stand-in for the process of interest.)

Data set [2] relates to mice treated with 1-methyl-4-phenyl-1,2,3,6-tetrahydropyridine (MPTP). Kind of data set: Neuroprotection in MPTP-treated mice, striatal dopamine. It is filed as in vivo, male C57BL6/J mice. The note with it: oral, twice daily for 11 days; MPTP 20 or 25 mg/kg i.p. for 5 days; FIGS. 1 to 3. On the procedure: The compound of Example 2 was tested on a model of mice treated with 1-methyl-4-phenyl-1,2,3,6-tetrahydropyridine (MPTP), in order to confirm its potential activity. MPTP is a neurotoxin which gives rise to permanent symptoms of Parkinson's disease by destroying certains neurons in the substantia nigra of the brain. The protocol used was as follows.
Male C57BL6/J mice, aged 10-12 weeks at the beginning of the studies, were divided into groups of 8 animals. The compound was administered orally and twice daily for 11 days in total. Administration was commenced 3 days before treatment with the MPTP toxin at 20 or 25 mg/kg. MPTP was administered once daily by intraperitoneal injection for 5 days. The administration of the test compound was continued for 3 days after the treatment with MPTP. One group of mice received the vehicle alone (0.5% methylcellulose solution). The animals were euthanized after the final gavage, and the striatum was removed. The dopamine was extracted from the striatum, and the amount of dopamine (DA), expressed in ng per g of striatum (mean±SEM), was measured by high-performance liquid chromatography (HPLC) with electrochemical detection.
The results obtained were reported in attached FIGS. 1 to 3.

Data set [3] in a line: Cerebral and plasma pharmacokinetic profile after oral administration in mice. Type of data set: in vivo, male C57Bl6 mouse. The note with it: oral administration 10 mg/kg in mice; for Kp: male, C57Bl6, mouse, brain/plasma, read-out: Ratio AUCbrain/AUCplasma; for AUCbrain: AUC0-t, up to 8 h. On the procedure: The protocol used was as follows:
Male C57Bl6 mice (25-30 g) from Janvier, Le Genest-St-Isle, France, were used for this study (12 mice per dose).
The animals were fed with standard rodent feed (Purina Mills, St. Louis, Mo.), and were placed in cages and subjected to 12 h/12 h light/dark cycles, the room temperature being maintained at 22±2° C. and the humidity level at 55±10%.
The mice were not fasted before administration. Water was supplied ad libitum throughout the study.
The test compound was administered orally at 10 mg/kg.
For oral administration at 10 mg/kg, the animals were fed by gavage with 10 mL/kg of a suspension of the test compound, prepared in 1% methylcellulose 400 cp.
The animals were sacrificed under anaesthesia at times 15 min, 30 min, 1 h, 3 h, 6 h and 8 h after gavage.
At each time, and on each sacrificed animal, the blood was collected and the brain was removed.
1 mL of blood collected in 1.5 mL tubes containing 20 μL of evaporated anticoagulant (solution of sodium heparinate at 1000 UI/mL) was centrifuged at 4500 g for 3 min to give approximately 400 μL of plasma. The plasma was divided into 2 aliquots of 200 μL, which were stored at −20° C. until extraction by protein precipitation, followed by analysis by liquid chromatography coupled with tandem mass spectrometry (LC-MS/MS) for the quantification of the test compound.
Immediately after their removal, the brains were plunged into liquid nitrogen and then stored at −20° C. for analysis. The brains were subsequently ground in the presence of aqueous/organic solvent mixture to give a homogenate. These homogenates were subsequently centrifuged and the test compound was extracted from the resulting supernatant, by liquid-liquid extraction, and then quantified by LC-MS/MS.
The pharmacokinetic parameters were determined on the basis of a non-compartmental approach in Excel. The area under the curve (AUC0-t) was determined by the linear trapezoidal method.

The target of data set [4] is T2, hNurr1_RXRγFL (NURR-1/RXRγ heterodimer) (Homo sapiens, UniProt P48443).
T2 construct: EC50 hNurr1_RXRγFL; other: Cos-7 cells, Gal4 luciferase reporter; other: level of induction relative to XCT0135908 at; hNurr1_RXRγFL
T2 sequence (P48443 whole entry, the tested form may be a part): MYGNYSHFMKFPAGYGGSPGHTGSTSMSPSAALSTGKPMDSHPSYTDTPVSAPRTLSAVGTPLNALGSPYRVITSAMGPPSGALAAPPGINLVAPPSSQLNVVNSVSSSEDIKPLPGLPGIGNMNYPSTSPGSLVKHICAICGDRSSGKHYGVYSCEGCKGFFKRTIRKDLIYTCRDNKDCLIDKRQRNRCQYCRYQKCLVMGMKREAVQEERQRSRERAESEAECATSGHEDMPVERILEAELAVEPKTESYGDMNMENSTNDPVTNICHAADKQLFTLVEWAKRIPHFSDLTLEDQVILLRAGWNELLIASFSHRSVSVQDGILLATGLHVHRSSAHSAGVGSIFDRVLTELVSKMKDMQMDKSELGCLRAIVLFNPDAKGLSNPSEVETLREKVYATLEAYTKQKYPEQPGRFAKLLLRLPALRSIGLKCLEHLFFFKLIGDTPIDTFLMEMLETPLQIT
T2 sequence (P43354 328-598 partner): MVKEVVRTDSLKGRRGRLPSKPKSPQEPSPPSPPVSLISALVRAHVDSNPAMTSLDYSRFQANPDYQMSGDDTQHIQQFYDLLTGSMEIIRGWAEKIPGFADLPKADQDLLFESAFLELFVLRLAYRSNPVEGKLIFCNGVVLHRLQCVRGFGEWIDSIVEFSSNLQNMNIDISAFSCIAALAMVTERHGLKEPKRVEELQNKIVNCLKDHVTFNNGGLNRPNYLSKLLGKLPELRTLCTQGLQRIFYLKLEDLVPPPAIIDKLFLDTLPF
Briefly: Transactivation assay, NURR-1-Gal4/RXRγ luciferase reporter in Cos-7 cells. Type of data set: cell-based. The note with it: for Emax: COS-7, level of induction relative to XCT0135908 at 2×10^-5 M = 100%, read-out: Eff hNurr1_RXRγFL (efficacy relative to the reference XCT0135908); for EC50: Cos-7 cells, Gal4 luciferase reporter. The procedure:
as §1, §2, §3, §4, §5, §6

T1 sequence (P43354 328-598): as the sequence (P43354 328-598 partner) above
T1 sequence (P19793 whole entry): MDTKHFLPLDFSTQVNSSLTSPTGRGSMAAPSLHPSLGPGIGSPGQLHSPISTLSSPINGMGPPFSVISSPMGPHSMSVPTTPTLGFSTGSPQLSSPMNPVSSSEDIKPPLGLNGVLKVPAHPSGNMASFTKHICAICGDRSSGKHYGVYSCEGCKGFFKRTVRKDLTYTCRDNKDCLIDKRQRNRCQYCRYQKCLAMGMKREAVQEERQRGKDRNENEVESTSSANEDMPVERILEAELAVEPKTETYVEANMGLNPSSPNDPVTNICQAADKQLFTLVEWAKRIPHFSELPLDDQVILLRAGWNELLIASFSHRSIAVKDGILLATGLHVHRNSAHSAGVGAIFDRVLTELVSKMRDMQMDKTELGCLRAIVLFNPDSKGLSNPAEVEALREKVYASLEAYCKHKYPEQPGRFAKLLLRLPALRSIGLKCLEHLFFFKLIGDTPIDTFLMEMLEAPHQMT

Regarding `CC(C)c1cccc(S(=O)(=O)n2c(CCCC(=O)O)cc3cc(C(F)(F)F)ccc32)c1` [Example 2, 1-[[3-(1-Methylethyl)phenyl]sulphonyl]-5-(trifluoromethyl)-1H-indole-2-butanoic acid], in data set [1], the Emax came to 86% and the EC50 stood at 73 nM. In addition, in data set [2], the “Effect on MPTP-induced reduction of dopamine level in the striatum” value (shortened to “Effect on MPTP-induced reduction”) is “reduce, in a dose-dependent way, the action of MPTP”. Besides, in data set [3], the Kp was 0.67 and the AUCbrain amounted to 3318. For the same compound, in data set [4], the Emax stood at 79% and the EC50 came out at 113 nM.
As to `CC(C)(C)c1cccc(S(=O)(=O)n2c(CCCC(=O)O)cc3cc(C(F)(F)F)ccc32)c1` [Example 8, 1-[[3-(1,1-Dimethylethyl)phenyl]sulphonyl]-5-(trifluoromethyl)-1H-indole-2-butanoic acid], in data set [1], the Emax was 100% and a half-maximal response (EC50) required 26 nM. In addition, the “Effect on MPTP-induced reduction” value in data set [2] is recorded as “reduce, in a dose-dependent way, the action of MPTP”. Moreover, in data set [3], the Kp turned out to be 0.87 and the AUCbrain was 2371. Also, in data set [4], the Emax turned out to be 70% and the 50% effective concentration (EC50) is 20 nM.
`CC(C)(C)c1cccc(S(=O)(=O)n2c(CCCCC(=O)O)cc3cc(C(F)(F)F)ccc32)c1` [Example 10, 1-[[3-(1,1-Dimethylethyl)phenyl]sulphonyl]-5-(trifluoromethyl)-1H-indole-2-pentanoic acid]: in data set [1], the Emax turned out to be 104% and the EC50 came out at 55 nM. The “Effect on MPTP-induced reduction” value in data set [2] is given as “reduce, in a dose-dependent way, the action of MPTP”. For the same compound, in data set [3], the Kp was determined as 0.8 and the AUCbrain came out at 1689. In data set [4], the Emax is 88% and the EC50 was 77 nM.

Source of the values: patent publication US8575210B2, “Use of indole derivatives as NURR-1 activators for treating parkinson's disease” (Laboratoires Fournier SA, priority 2008, dated 2013).
